The values below come from patent publication US9351956B1, “Pharmaceutical composition comprising an enantiomer of lipoamide and derivatives thereof and method of use” (GeroNova Research Inc., priority 2012, dated 2016).

Common to all, as to type: cell-based
What all share (conditions): HepG2 cells, 0.2 mM, 8 hours, 5.5 mM glucose

Assay [1] deals with Antioxidant Response Element (ARE). Nature of the assay: dual-luciferase reporter array, ARE. As for the experimental part:
(§1) Nine test compounds were synthesized and characterized. The effects of R, S and RS forms of LA, LAM and LAP on multiple signaling pathways were studied in HepG2 cells at 0.2 mM for 8 hours (5.5 mM glucose) using a dual-luciferase reporter array. The reporter is a mixture of Firefly Luciferase gene construct under control of an inducible transcription factor-responsive promoter and an internal control plasmid constitutively expressing Renilla luciferase gene. Each inducible construct monitors changes in the activity of a select transcription factor serving as a marker for activation or suppression of a specific signaling pathway.

For assay [2], the system named is progesterone receptor (PR). Nature of the assay: dual-luciferase reporter array, PR. As for the experimental part:
as §1
A general note: A reporter such as luciferase makes a cellular process visible.

For another assay, the system named is heat shock factor (HSF). Nature of the assay: dual-luciferase reporter array, HSF. As for the experimental part:
as §1

The test system of assay [3] is xenobiotic response element (XRE). Nature of the assay: dual-luciferase reporter array, XRE. As for the experimental part: as §1
Assay [4] relates to retinoic acid response element (RAR). Nature of the assay: dual-luciferase reporter array, RAR. Here is the method:
as §1

For another assay, the system named is C/EBP. Nature of the assay: dual-luciferase reporter array, C/EBP. As for the experimental part: as §1
A further assay deals with PI3K/AKT. Nature of the assay: dual-luciferase reporter array, FOXO reporter as inverse marker for PI3K/AKT. As for the experimental part:
as §1
This above studies identified previously unknown enantioselective and non-enantioselective pathways differentially affected by LA and amide derivatives. In some cases the racemic compounds activate pathways not activated by either enantiomer. […] The heavy metal response pathway was similarly affected by all nine compounds, which lowered values below control levels. […] The greatest increase in activity of a pathway by all compounds was activation of the Antioxidant Response Element (ARE) but the magnitude varied widely by compound. […] Activation of FOXO transcription factors is repressed by AKT phosphorylation and thus functions as an inverse marker for PI3K/AKT activity, such that low pathway activity increases the magnitude of the FOXO reporter.

Assay [5] has as its system peroxisome proliferator-activated receptor (PPAR). Nature of the assay: dual-luciferase reporter array, PPAR. Here is the method:
as §1

SMILES strings stand for the structures.

As to `NC(=O)CCCC[C@@H]1CCSS1` [RLAM, R-(+)-lipoamide], the “ARE response (activation)” value in assay [1] was “strongest ARE response”. Further, the PR activation result in assay [2] is “selectively activates”.
On to `NC(=O)CCCC[C@H]1CCSS1` [SLAM, S-(−)-lipoamide], for which the “ARE response (activation)” value in assay [1] is given as “activated”. The HSF activation result with heat shock factor (HSF) is “activated”. For the same molecule, the XRE induction result in assay [3] was “induced”.
Turning to `CN(C)CCNC(=O)CCCC[C@H]1CCSS1` [SLAP], the XRE induction result in assay [3] was “induced”.
Take `O=C(O)CCCC[C@@H]1CCSS1` [RLA, R-(+)-lipoic acid]: in assay [4], the RAR activation entry was “selectively activates”. For the same molecule, in the assay on C/EBP, the C/EBP activation entry is reported as “selectively activates”. In the assay on PI3K/AKT, the “PI3K/AKT activation (inverse of FOXO reporter response)” value is “strongly activates”.
For `O=C(O)CCCC[C@H]1CCSS1` [SLA, S-(−)-lipoic acid], in the assay with PI3K/AKT, the “PI3K/AKT activation (inverse of FOXO reporter response)” value was “minimal”. In addition, in assay [5], the PPAR activity result is given as “lowered”.
